These results are taken from ChEMBL document CHEMBL6134870 (J Med Chem, 2025).

Structures are written as SMILES.

The conditions of data set [1]: human, serum, 2 h.
Data set [2] is described as follows: Cytotoxicity against BoNT/A treated human iPSC cells assessed as cell rounding at 100 uM incubated for 7.5 hrs by Western blot analysis. It counts as toxicity, cell-based.
The target of data set [3] is T1, Matrix metalloproteinase-19 (Homo sapiens, UniProt Q99542).
T1 sequence (Q99542 whole entry): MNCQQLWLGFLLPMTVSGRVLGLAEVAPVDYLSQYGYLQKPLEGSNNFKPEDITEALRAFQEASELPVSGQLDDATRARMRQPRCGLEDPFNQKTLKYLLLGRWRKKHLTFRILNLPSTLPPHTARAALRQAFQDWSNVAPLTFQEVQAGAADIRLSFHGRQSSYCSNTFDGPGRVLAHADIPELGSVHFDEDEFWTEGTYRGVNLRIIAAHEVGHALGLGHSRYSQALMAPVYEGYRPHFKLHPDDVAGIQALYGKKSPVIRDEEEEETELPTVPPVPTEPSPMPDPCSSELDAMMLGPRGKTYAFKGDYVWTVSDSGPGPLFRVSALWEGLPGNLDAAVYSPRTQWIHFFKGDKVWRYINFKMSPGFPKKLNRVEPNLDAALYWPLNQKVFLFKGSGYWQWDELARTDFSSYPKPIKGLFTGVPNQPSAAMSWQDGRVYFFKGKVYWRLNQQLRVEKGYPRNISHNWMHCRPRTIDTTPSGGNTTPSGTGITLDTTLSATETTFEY
Briefly: Inhibition of MMP-19 (unknown origin) at 25 uM. It counts as toxicity.

The target of data set [4] is Matrix metalloproteinase-14 (Homo sapiens, UniProt P50281). In words: Inhibition of MMP-14 (unknown origin) at 25 uM. The class given is toxicity.
Data set [5] concerns HEK293. In words: Cytotoxicity against HEK293 cells assessed as reduction in cell viability at 2 to 128 uM incubated for 24 hrs by MTS assay. The class given is toxicity, cell-based. Particulars: human, hek293, 24 h, dose 2-128 µM; call rule not given here.

In turn, `C=C=CC(=O)NCCCc1ccn2c(=O)cc(CNCc3ccc(-c4ccccc4)cc3)nc2c1O` gave a t1/2 in data set [1] of 6.4 h.
As to `FC(F)(F)c1ccc(-c2ccc3c(c2)CC(=S)N3)c(C2CC2)c1`, in data set [2], the Activity result was “Toxic”.
Turning to `FC(F)(F)c1ccc(-c2cc3c(cc2Cl)NC(=S)C3)c(C(F)(F)F)c1`, the outcome in data set [3] and in data set [4] was Active.
Regarding `FC(F)(F)c1ccc(-c2ccc3c(c2)CC(=S)N3)c(C(F)(F)F)c1`, the Activity entry in data set [2] is “Toxic”; in data set [5], “Non-toxic”.
In turn, `Cn1c(SC(=O)C(C)(C)C)cc2cc(C(=O)Nc3ccccc3)ccc21` showed a t1/2 in data set [1] of 1.2 h.
